Source: EP4623906A1, “OPHTHALMIC FORMULATION COMPRISING PYRIDINE PHENYL COMPOUND, PREPARATION METHOD THEREFOR, AND USE THEREOF” (Zhuhai United Laboratories Co., Ltd., priority 2022, dated 2024)

How the values were obtained:
Assay type in all cases: physicochemical
[1] = Solubilization trials of compound of formula (IX) with different solubilizing agents, grinding and heating (Examples 1-11)
Method: Examples 1-11 were prepared according to the specific processes in Table 1. […]

[2] = Preliminary stability of eye drops with antimicrobial preservatives, in the dark at 25°C and 40°C for 5 days (Examples 52, 55, 56); conditions: Compound of Formula (IX), 0 h
Method: According to the prescription ratio in Table 11, the active compound of formula (IX) was weighed, and dispersed in isopropanol with stirring until the solution was clear. HP-β-CD was slowly added under stirring, until the solution was clear. Purified water in the prescribed ratio was slowly added to the isopropanol solution under stirring, and stirred for 1 hour to obtain a clear solution. The above solution was freeze-dried in a vacuum freeze dryer to obtain a loose white freeze-dried powder. Freeze-dried powder of the inclusion compound was dissolved in a re-dissolving medium, and successively filtered through 0.45 µm and 0.22 µm mixed filter membrane to obtain active compound eye drops, and filled in a sample packaging of 2 mL per bottle, to obtain eye drops.
For multi-dose packaged eye drops, the addition of antimicrobial preservatives is needed to avoid microbial contamination during use. The effects of two antimicrobial preservatives, benzalkonium chloride and chlorhexidine acetate, on prescription stability were investigated through Examples 52, 55, and 56. The preliminary stability of eye drops from Example 52, Example 55, and Example 56 was investigated by placing them in the dark at 25°C and 40°C for 5 days.

[3] = Preliminary compatibility of packaging materials, in the dark at 25°C (Examples 52-54); parameters: unit not given here; conditions: Compound of Formula (IX) itself
Method: Examples 53 and 54 were packaged in low-density polyethylene (PE) pharmaceutical eye drops bottles, brown polyester (PET) pharmaceutical eye drops bottles and ampoules, respectively. They were placed in the dark at 25°C to investigate the preliminary compatibility of the packaging materials.

Question: What does the source list for `CC(C)(O)c1ccc(-c2cnc(C(C)(C)O)c(N)c2)cc1N` [Compound of Formula (IX)]?
Answer: Solubility in water [1]: insoluble or almost insoluble; Peak at retention time 19.6 min, relative retention time 1.00 [2]: 93.14; Peak at retention time 20.2 min, relative retention time 1.03 [2]: 0.16; Peak at retention time 21.1 min, relative retention time 1.08 [2]: 0.39; Peak at retention time 21.5 min, relative retention time 1.10 [2]: 0.41; Peak at retention time 23.8 min, relative retention time 1.21 [2]: 0.11; Peak at retention time 24.0 min, relative retention time 1.22 [2]: 2.41; Peak at retention time 24.5 min, relative retention time 1.25 [2]: 0.50; Peak at retention time 24.7 min, relative retention time 1.26 [2]: 0.25; Peak at retention time 24.8 min, relative retention time 1.27 [2]: 0.12; Peak at retention time 25.6 min, relative retention time 1.31 [2]: 0.09; Peak at retention time 26.0 min, relative retention time 1.33 [2]: 0.15; Peak at retention time 26.2 min, relative retention time 1.34 [2]: 2.15; Peak at retention time 28.3 min, relative retention time 1.44 [2]: 0.13; Impurity RRT 0.44 [3]: 0.06; Impurity RRT 1.17 [3]: 0.05; Impurity RRT 1.29 [3]: 0.20; Impurity RRT 1.34 [3]: 0.10; Impurity RRT 1.55 [3]: 0.07; Impurity RRT 1.59 [3]: 0.02; Impurity RRT 1.66 [3]: 0.04; Impurity RRT 1.75 [3]: 0.04; Impurity RRT 1.81 [3]: 0.03; Impurity RRT 1.84 [3]: 0.25; Impurity RRT 1.89 [3]: 0.04; Impurity RRT 1.97 [3]: 0.03; Impurity RRT 2.10 [3]: 0.09; Impurity RRT 2.19 [3]: 0.21; Impurity RRT 2.23 [3]: 0.02; Impurity RRT 2.27 [3]: 0.03; Total impurity [3]: 1.03
